{
  "source": "ChEMBL document CHEMBL3769306",
  "about": "“Discovery of Molecular Therapeutics for Glaucoma: Challenges, Successes, and Promising Directions” (J Med Chem, 2016)",
  "key": {"Adenosine receptor A2a [1]": {"molecular_target": "T1, Adenosine receptor A2a (Homo sapiens, UniProt P29274)", "T1 sequence (P29274 whole entry)": "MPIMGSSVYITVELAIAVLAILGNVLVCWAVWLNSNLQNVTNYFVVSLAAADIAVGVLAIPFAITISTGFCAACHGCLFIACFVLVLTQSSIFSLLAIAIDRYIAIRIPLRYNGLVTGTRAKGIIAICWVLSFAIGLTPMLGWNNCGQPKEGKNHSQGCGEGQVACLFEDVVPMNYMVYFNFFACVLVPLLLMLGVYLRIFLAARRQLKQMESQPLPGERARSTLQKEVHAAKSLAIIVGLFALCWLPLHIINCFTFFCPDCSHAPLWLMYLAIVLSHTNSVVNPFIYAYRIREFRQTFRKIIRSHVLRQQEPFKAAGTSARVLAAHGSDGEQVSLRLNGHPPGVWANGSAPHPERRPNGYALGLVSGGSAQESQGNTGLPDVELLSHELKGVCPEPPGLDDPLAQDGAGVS", "experiment": "Displacement of 2-[2-(4-amino-3-[125I]iodophenyl)ethylamino]adenosine from human recombinant adenosine A2A receptor expressed in HEK293 cells", "assay_type": "cell-based"}, "[2]": {"molecular_target": "T2, Rho-associated protein kinase 2 (Homo sapiens, UniProt O75116)", "T2 sequence (O75116 whole entry)": "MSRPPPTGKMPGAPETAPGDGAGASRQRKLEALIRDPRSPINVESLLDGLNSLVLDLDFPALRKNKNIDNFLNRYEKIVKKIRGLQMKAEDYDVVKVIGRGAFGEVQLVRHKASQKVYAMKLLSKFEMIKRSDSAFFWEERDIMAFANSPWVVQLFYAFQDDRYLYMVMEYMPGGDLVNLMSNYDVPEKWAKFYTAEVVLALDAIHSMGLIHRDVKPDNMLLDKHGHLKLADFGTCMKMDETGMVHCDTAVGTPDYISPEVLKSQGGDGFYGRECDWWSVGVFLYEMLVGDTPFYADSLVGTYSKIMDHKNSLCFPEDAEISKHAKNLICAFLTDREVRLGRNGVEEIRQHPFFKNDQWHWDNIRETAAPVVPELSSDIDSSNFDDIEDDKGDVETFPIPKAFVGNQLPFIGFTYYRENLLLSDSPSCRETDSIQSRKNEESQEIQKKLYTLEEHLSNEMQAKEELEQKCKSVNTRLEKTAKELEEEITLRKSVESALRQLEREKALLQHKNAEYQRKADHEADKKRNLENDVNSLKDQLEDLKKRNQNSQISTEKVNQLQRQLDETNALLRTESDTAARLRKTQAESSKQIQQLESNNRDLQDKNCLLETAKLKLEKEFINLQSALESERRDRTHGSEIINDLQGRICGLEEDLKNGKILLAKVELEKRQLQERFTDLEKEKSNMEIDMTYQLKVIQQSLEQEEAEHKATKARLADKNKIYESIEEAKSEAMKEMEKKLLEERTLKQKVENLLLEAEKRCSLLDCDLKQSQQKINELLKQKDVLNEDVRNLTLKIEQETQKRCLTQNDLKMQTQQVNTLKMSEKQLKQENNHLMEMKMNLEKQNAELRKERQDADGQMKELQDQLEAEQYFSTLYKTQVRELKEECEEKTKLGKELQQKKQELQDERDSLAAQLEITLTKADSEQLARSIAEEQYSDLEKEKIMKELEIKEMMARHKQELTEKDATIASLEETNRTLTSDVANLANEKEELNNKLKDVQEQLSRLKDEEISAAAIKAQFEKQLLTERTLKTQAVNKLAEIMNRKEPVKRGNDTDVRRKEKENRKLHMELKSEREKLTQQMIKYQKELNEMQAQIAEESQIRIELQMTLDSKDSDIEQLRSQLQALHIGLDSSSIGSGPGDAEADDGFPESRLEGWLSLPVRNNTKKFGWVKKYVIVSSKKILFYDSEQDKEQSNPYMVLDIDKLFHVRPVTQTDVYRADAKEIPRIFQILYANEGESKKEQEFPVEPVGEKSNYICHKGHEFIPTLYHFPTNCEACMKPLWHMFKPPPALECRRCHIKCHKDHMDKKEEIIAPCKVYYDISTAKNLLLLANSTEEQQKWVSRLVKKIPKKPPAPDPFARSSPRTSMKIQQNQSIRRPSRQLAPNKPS", "experiment": "Inhibition of ROCK2 (unknown origin) using STK2 as substrate after 1 hr"}, "Adenosine receptor A3": {"molecular_target": "T3, Adenosine receptor A3 (Homo sapiens, UniProt P0DMS8)", "T3 sequence (P0DMS8 whole entry)": "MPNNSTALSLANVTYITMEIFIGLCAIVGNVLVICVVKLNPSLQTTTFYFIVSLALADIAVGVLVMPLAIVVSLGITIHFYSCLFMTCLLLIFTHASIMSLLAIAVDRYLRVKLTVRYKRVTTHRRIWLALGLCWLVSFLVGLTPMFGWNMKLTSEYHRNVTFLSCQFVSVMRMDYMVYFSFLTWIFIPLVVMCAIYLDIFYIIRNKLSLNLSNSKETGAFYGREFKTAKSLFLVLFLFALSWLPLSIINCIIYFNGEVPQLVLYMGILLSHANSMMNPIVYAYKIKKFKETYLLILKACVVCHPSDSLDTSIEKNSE", "experiment": "Antagonist activity at human adenosine A3 receptor"}, "Adenosine receptor A2a [3]": {"molecular_target": "T1, Adenosine receptor A2a", "experiment": "Displacement of [3H]-[…] from human recombinant adenosine A2A receptor"}, "[4]": {"molecular_target": "T2, Rho-associated protein kinase 2", "experiment": "Inhibition of ROCK2 (unknown origin)"}, "[5]": {"molecular_target": "Rho-associated protein kinase 1 (Homo sapiens, UniProt Q13464)", "sequence (Q13464 whole entry)": "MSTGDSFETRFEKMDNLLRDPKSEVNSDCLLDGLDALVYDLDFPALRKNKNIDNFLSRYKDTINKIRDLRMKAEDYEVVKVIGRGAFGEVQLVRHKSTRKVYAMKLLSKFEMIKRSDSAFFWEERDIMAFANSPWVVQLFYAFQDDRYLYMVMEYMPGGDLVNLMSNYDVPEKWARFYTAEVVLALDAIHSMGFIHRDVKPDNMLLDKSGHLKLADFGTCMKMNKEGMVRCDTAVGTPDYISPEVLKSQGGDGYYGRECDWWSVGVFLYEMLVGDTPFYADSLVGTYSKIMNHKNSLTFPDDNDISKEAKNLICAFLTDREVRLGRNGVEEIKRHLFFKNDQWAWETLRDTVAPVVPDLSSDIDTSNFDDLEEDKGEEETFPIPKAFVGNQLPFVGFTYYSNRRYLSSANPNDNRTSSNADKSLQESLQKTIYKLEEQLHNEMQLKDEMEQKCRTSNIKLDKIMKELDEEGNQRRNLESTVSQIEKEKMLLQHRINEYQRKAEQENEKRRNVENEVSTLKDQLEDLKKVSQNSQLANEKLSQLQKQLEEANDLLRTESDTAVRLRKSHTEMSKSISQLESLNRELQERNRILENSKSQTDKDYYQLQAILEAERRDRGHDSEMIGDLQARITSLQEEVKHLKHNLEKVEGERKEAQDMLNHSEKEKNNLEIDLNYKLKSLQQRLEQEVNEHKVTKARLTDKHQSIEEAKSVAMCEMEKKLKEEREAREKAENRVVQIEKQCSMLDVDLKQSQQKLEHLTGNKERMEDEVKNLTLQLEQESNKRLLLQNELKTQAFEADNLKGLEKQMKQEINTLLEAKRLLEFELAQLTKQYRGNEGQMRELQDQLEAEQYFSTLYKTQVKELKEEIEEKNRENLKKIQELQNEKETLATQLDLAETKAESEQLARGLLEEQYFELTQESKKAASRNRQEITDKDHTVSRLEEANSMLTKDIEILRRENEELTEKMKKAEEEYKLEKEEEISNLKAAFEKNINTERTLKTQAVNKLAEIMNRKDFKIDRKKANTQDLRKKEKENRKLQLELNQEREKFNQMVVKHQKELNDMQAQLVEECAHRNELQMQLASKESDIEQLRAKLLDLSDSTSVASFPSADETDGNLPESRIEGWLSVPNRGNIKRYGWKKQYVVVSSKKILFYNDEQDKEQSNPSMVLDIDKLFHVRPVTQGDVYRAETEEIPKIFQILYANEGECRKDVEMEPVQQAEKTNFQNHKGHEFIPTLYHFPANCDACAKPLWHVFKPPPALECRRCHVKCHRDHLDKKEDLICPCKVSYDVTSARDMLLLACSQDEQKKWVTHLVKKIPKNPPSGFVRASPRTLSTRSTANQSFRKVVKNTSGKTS", "experiment": "Inhibition of ROCK1 (unknown origin)"}},
  "data": [
    {"smiles": "COC(=O)N1CCC(CC#Cc2nc(N)c3ncn([C@@H]4O[C@H](C(=O)NC5CC5)[C@@H](O)[C@H]4O)c3n2)CC1", "note": "[EVODENOSON]", "values": [
      {"measurement": "Kd", "setting": "Adenosine receptor A2a [1]", "value": 0.7, "unit": "nM"}
    ]},
    {"smiles": "CN(C)CCOc1cc(-c2cn[nH]c2)ccc1NC(=O)C1COc2ccccc2O1", "note": "(stereo not given) [SR-3677]", "values": [
      {"measurement": "IC50", "setting": "[2]", "value": 3, "unit": "nM"}
    ]},
    {"smiles": "CNC(=O)[C@H]1O[C@@H](n2cnc3c(NCc4cccc(I)c4)nc(Cl)nc32)[C@H](OC(C)=O)[C@@H]1OC(C)=O", "values": [
      {"measurement": "Ki", "setting": "Adenosine receptor A3", "value": 910, "unit": "nM"}
    ]},
    {"smiles": "N#CCCCCC#Cc1nc(N)c2ncn([C@@H]3O[C@H](CO)[C@@H](O)[C@H]3O)c2n1", "values": [
      {"measurement": "Ki", "setting": "Adenosine receptor A2a [3]", "value": 49.3, "unit": "nM"}
    ]},
    {"smiles": "NC(C(=O)Nc1ccc2cnccc2c1)c1ccccc1", "note": "(stereo not given)", "values": [
      {"measurement": "IC50", "setting": "[4]", "value": 1.5, "unit": "nM"},
      {"measurement": "IC50", "setting": "[5]", "value": 6, "unit": "nM"}
    ]},
    {"smiles": "CCCCCCC#Cc1nc(N)c2ncn([C@@H]3O[C@H](CO)[C@@H](O)[C@H]3O)c2n1", "values": [
      {"measurement": "Ki", "setting": "Adenosine receptor A2a [3]", "value": 31.8, "unit": "nM"}
    ]},
    {"smiles": "C[C@H]1CNCCCN1S(=O)(=O)c1cccc2cncc(F)c12", "values": [
      {"measurement": "IC50", "setting": "[4]", "value": 19, "unit": "nM"}
    ]},
    {"smiles": "NCC(C(=O)Nc1ccc2cnccc2c1)c1ccccc1", "note": "(stereo not given)", "values": [
      {"measurement": "IC50", "setting": "[4]", "value": 1.1, "unit": "nM"},
      {"measurement": "IC50", "setting": "[5]", "value": 1.2, "unit": "nM"}
    ]}
  ]
}
